The nature of the data set: molar heat capacity at constant pressure. Conditions: 100 kPa, DSC.

The values below come from the NIST ThermoML archive (doi:10.1021/acs.jced.9b00348).

The structures appear in SMILES notation. ± gives the expanded uncertainty stated by the source.

Turning to `[F][Th]([F])([F])[F]` [thorium tetraluoride], the “molar heat capacity at constant pressure” value is reported as 145 ± 21 J/K/mol (1278 K, Crystal) and 168 ± 21 J/K/mol (1478 K, Liquid).
